Results taken from US20250282768A1 (Janssen Pharmaceutica NV, priority 2022, published 2025).

System: p-IKKa levels in L363 (NIK translocated multiple myeloma) cells
Assay: Assay 2: Effect of compounds on p-IKKa levels in L363 (NIK translocated multiple myeloma) cells
Assay type: cell-based
Details: Homo sapiens, L-363, 6 h, read-out: Assay 2 IC50 (nM), p-IKKa (Ser 176/180) in BAFF stimulated L363 cells with MG132, 6 h; average if tested more than once
How it was run: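 Read-out is p-IKKa Ser176/180 by AlphaLISA SureFire in lysates. Cells were BAFF-primed (250 ng/ml) overnight or left unstimulated, then exposed 6 h at 37 °C to compound with MG132 (10 μM), 0.3% DMSO. IC50 from sigmoidal curve fit, normalized between stimulated and unstimulated controls.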

| Structure (SMILES) | IC50 |
| --- | --- |
| CC(Nc1nccc(-c2cccc(-c3cc([C@]4(O)CCN(C)C4=O)on3)n2)n1)c1cn(C)cn1 (stereo partly drawn) [Example 378, (3R)-3-Hydroxy-1-methyl-3-(3-(6-(2-((1-(1-methyl-1H-imidazol-4-yl)ethyl)amino)pyrimidin-4-yl)pyridin-2-yl)isoxazol-5-yl)pyrrolidin-2-one] | 50 to 500 nM |
| CCn1cc(Nc2nccc(-c3cccc(-n4cc([C@]5(O)CCN(C)C5=O)nn4)n3)n2)cn1 [Example 335, (R)-3-(1-(6-(2-((1-Ethyl-1H-pyrazol-4-yl)amino)pyrimidin-4-yl)pyridin-2-yl)-1H-1,2,3-triazol-4-yl)-3-hydroxy-1-methylpyrrolidin-2-one] | < 50 nM |
| CC(C)[C@H](Nc1nccc(-c2cccc(-c3cc([C@]4(O)CCN(C)C4=O)on3)n2)n1)c1cnn(C)c1 (single isomer, unassigned) [Example 163] | 50 to 500 nM |
| CC1OCCn2ncc(Nc3nccc(-c4cccc(-c5cc([C@@]6(O)C(=O)N(C)CC6(F)F)on5)n4)n3)c21 (single isomer, unassigned) [Example 116, (R)-4,4-Difluoro-3-hydroxy-1-methyl-3-(3-(6-(2-(((*R)-4-methyl-6,7-dihydro-4H-pyrazolo[5,1-c][1,4]oxazin-3-yl)amino)pyrimidin-4-yl)pyridin-2-yl)isoxazol-5-yl)pyrrolidin-2-one] | 50 to 500 nM |
| CN1CC[C@@](O)(c2cc(-c3cccc(-c4ccnc(Nc5c[nH]nc5C(F)(F)F)n4)n3)no2)C1=O [Example 33, (R)-3-Hydroxy-1-methyl-3-(3-(6-(2-((3-(trifluoromethyl)-1H-pyrazol-4-yl)amino)pyrimidin-4-yl)pyridin-2-yl)isoxazol-5-yl)pyrrolidin-2-one] | > 500 nM |
| Cc1nn(CCN(C)C)c(C)c1Nc1nccc(-c2cccc(-c3cc([C@]4(O)CCN(C)C4=O)on3)n2)n1 [Example 278, (R)-3-(3-(6-(2-((1-(2-(Dimethylamino)ethyl)-3,5-dimethyl-1H-pyrazol-4-yl)amino)pyrimidin-4-yl)pyridin-2-yl)isoxazol-5-yl)-3-hydroxy-1-methylpyrrolidin-2-one] | > 500 nM |
| C[C@@H](Nc1nccc(-c2cccc(-c3cc([C@]4(O)CCN(C)C4=O)on3)n2)n1)C(=O)N1CCCCC1 [Example 179, (R)-3-Hydroxy-1-methyl-3-(3-(6-(2-(((R)-1-oxo-1-(piperidin-1-yl)propan-2-yl)amino)pyrimidin-4-yl)pyridin-2-yl)isoxazol-5-yl)pyrrolidin-2-one] | 50 to 500 nM |
| Cc1c(Nc2nccc(-c3cccc(-c4cc([C@]5(O)CCN(C)C5=O)on4)n3)n2)cnn1CC(C)(C)O [Example 269, (R)-3-Hydroxy-3-(3-(6-(2-((1-(2-hydroxy-2-methylpropyl)-5-methyl-1H-pyrazol-4-yl)amino)pyrimidin-4-yl)pyridin-2-yl)isoxazol-5-yl)-1-methylpyrrolidin-2-one] | < 50 nM |
| CN1CC[C@@](O)(c2cc(-c3cccc(-c4ccnc(NC[C@H]5CCO5)n4)n3)no2)C1=O [Example 358, (R)-3-Hydroxy-1-methyl-3-(3-(6-(2-((((R)-oxetan-2-yl)methyl)amino)pyrimidin-4-yl)pyridin-2-yl)isoxazol-5-yl)pyrrolidin-2-one] | > 500 nM |
| C[C@@H](Nc1nccc(-c2cccc(-c3cc([C@]4(O)CCN(C)C4=O)on3)n2)n1)C(=O)N1CC(F)(F)C1 [Example 169, (R)-3-(3-(6-(2-(((R)-1-(3,3-Difluoroazetidin-1-yl)-1-oxopropan-2-yl)amino)pyrimidin-4-yl)pyridin-2-yl)isoxazol-5-yl)-3-hydroxy-1-methylpyrrolidin-2-one] | > 500 nM |
| C[C@H](Nc1nccc(-c2cccc(-c3cc([C@]4(O)CCN(C)C4=O)on3)n2)n1)c1cn[nH]c1 (single isomer, unassigned) [Example 149] | 50 to 500 nM |
| CNC(=O)c1cnc(C)c(Nc2nccc(-c3cccc(-c4cc([C@]5(O)CCN(C)C5=O)on4)n3)n2)c1 [Example 473, (R)-5-((4-(6-(5-(3-Hydroxy-1-methyl-2-oxopyrrolidin-3-yl)isoxazol-3-yl)pyridin-2-yl)pyrimidin-2-yl)amino)-N,6-dimethylnicotinamide] | 50 to 500 nM |
| CN1CC[C@@](O)(c2cc(-c3cccc(-c4ccnc(NC5CSC5)n4)n3)no2)C1=O [Example 446, (R)-3-Hydroxy-1-methyl-3-(3-(6-(2-(thietan-3-ylamino)pyrimidin-4-yl)pyridin-2-yl)isoxaozl-5-yl)pyrrolidin-2-one] | 50 to 500 nM |
| CCn1ccc(Nc2nccc(-c3cccc(-n4cc([C@]5(O)CCN(C)C5=O)nn4)n3)n2)n1 [Example 253, (3R)-3-[1-[6-[2-[(1-Ethylpyrazol-3-yl)amino]pyrimidin-4-yl]-2-pyridyl]triazol-4-yl]-3-hydroxy-1-methyl-pyrrolidin-2-one] | < 50 nM |
| CO[C@H](C)CNc1nccc(-c2cccc(-c3cc([C@]4(O)CCN(C)C4=O)on3)n2)n1 [Example 356, (R)-3-Hydroxy-3-(3-(6-(2-(((R)-2-methoxypropyl)amino)pyrimidin-4-yl)pyridin-2-yl)isoxazol-5-yl)-1-methylpyrrolidin-2-one] | 50 to 500 nM |
| CN1CC[C@@](O)(c2cc(-c3cccc(-c4ccnc(NC(c5ccccn5)C5CC5)n4)n3)no2)C1=O (stereo partly drawn) [Example 390, (3R)-3-(3-(6-(2-((Cyclopropyl(pyridin-2-yl)methyl)amino)pyrimidin-4-yl)pyridin-2-yl)isoxazol-5-yl)-3-hydroxy-1-methylpyrrolidin-2-one] | > 500 nM |
| Cc1c(Nc2nccc(-c3cccc(-c4cc([C@]5(O)CCN(C)C5=O)on4)n3)n2)cnn1CC(F)F [Example 225, (R)-3-(3-(6-(2-((1-(2,2-Difluoroethyl)-5-methyl-1H-pyrazol-4-yl)amino)pyrimidin-4-yl)pyridin-2-yl)isoxazol-5-yl)-3-hydroxy-1-methylpyrrolidin-2-one] | < 50 nM |
| CN1CC[C@@](O)(c2cc(-c3cccc(-c4ccnc(NC5CC56CCOC6)n4)n3)no2)C1=O (stereo partly drawn) [Example 350, (3R)-3-(3-(6-(2-((5-Oxaspiro[2.4]heptan-1-yl)amino)pyrimidin-4-yl)pyridin-2-yl)isoxazol-5-yl)-3-hydroxy-1-methylpyrrolidin-2-one] | > 500 nM |
| CN1CC[C@@](O)(c2cc(-c3cccc(-c4ccnc(Nc5ccncc5F)n4)n3)no2)C1=O [Example 330, (R)-3-(3-(6-(2-((3-Fluoropyridin-4-yl)amino)pyrimidin-4-yl)pyridin-2-yl)isoxazol-5-yl)-3-hydroxy-1-methylpyrrolidin-2-one] | < 50 nM |
| CN1CC[C@@](O)(c2cc(-c3cccc(-c4ccnc(Nc5cnc6n5CCOC6)n4)n3)no2)C1=O [Example 313, (R)-3-(3-(6-(2-((5,6-Dihydro-8H-imidazo[2,1-c][1,4]oxazin-3-yl)amino)pyrimidin-4-yl)pyridin-2-yl)isoxazol-5-yl)-3-hydroxy-1-methylpyrrolidin-2-one] | > 500 nM |
| C[C@@H]1C[C@@](O)(c2cc(-c3cccc(-c4ccnc(Nc5ccn(C)n5)n4)n3)no2)C(=O)N1C [Example 92, (3R,5R)-3-Hydroxy-1,5-dimethyl-3-(3-(6-(2-((1-methyl-1H-pyrazol-3-yl)amino)pyrimidin-4-yl)pyridin-2-yl)isoxazol-5-yl)pyrrolidin-2-one] | 50 to 500 nM |
| [2H]C1([2H])N(C)C(=O)[C@](O)(c2cc(-c3cccc(-c4ccnc(Nc5cnn(CC)c5)n4)n3)no2)C1([2H])[2H] [Example 7, (R)-3-(3-(6-(2-((1-Ethyl-1H-pyrazol-4-yl)amino)pyrimidin-4-yl)pyridin-2-yl)isoxazol-5-yl)-3-hydroxy-1-methylpyrrolidin-2-one-4,4,5,5-d4] | < 50 nM |
| Cc1ncccc1Nc1nccc(-c2cccc(-c3cc([C@]4(O)CCN(C)C4=O)no3)n2)n1 [Example 111, (R)-3-Hydroxy-1-methyl-3-(5-(6-(2-((2-methylpyridin-3-yl)amino)pyrimidin-4-yl)pyridin-2-yl)isoxazol-3-yl)pyrrolidin-2-one] | < 50 nM |
| CN1CC[C@@](O)(c2cc(-c3cccc(-c4ccnc(Nc5cncc(F)c5)n4)n3)no2)C1=O [Example 86, (R)-3-(3-(6-(2-((5-Fluoropyridin-3-yl)amino)pyrimidin-4-yl)pyridin-2-yl)isoxazol-5-yl)-3-hydroxy-1-methylpyrrolidin-2-one] | < 50 nM |
| C[C@@H](CF)Nc1nccc(-c2cccc(-c3cc([C@]4(O)CCN(C)C4=O)on3)n2)n1 [Example 348, (R)-3-(3-(6-(2-(((S)-1-Fluoropropan-2-yl)amino)pyrimidin-4-yl)pyridin-2-yl)isoxazol-5-yl)-3-hydroxy-1-methylpyrrolidin-2-one] | 50 to 500 nM |
| CN1CC[C@@](O)(c2cc(-c3cccc(-c4ccnc(Nc5cnn(C)c5Cl)n4)n3)no2)C1=O [Example 297, (R)-3-(3-(6-(2-((5-Chloro-1-methyl-1H-pyrazol-4-yl)amino)pyrimidin-4-yl)pyridin-2-yl)isoxazol-5-yl)-3-hydroxy-1-methylpyrrolidin-2-one] | < 50 nM |
| CN1CC[C@](O)(c2nnc(-c3cccc(-c4ccnc(Nc5cnn(C)c5Cl)n4)n3)s2)C1=O [Example 103, (R)-3-(5-(6-(2-((5-chloro-1-methyl-1H-pyrazol-4-yl)amino)pyrimidin-4-yl)pyridin-2-yl)-1,3,4-thiadiazol-2-yl)-3-hydroxy-1-methylpyrrolidin-2-one] | > 500 nM |
| COc1cc(-c2cc([C@]3(O)CCN(C)C3=O)on2)nc(-c2ccnc(Nc3ccn(C)n3)n2)c1 [Example 146, (R)-3-Hydroxy-3-(3-(4-methoxy-6-(2-((1-methyl-1H-pyrazol-3-yl)amino)pyrimidin-4-yl)pyridin-2-yl)isoxazol-5-yl)-1-methylpyrrolidin-2-one] | < 50 nM |
| CCn1cc(Nc2nccc(-c3cccc(-c4cc([C@]5(O)CCN(C)C5=O)no4)n3)n2)cn1 [Example 91, (R)-3-(5-(6-(2-((1-Ethyl-1H-pyrazol-4-yl)amino)pyrimidin-4-yl)pyridin-2-yl)isoxazol-3-yl)-3-hydroxy-1-methylpyrrolidin-2-one] | < 50 nM |
